As usually defined, the pIC50 is −log10 of the IC50, conventionally taken in molar units. Higher therefore signals a small IC50. A word on the GI50: it is the concentration at which growth is held to half of that of the control.

For one test, the target named is ABL^M351T (Homo sapiens, UniProt P00519, M351T). In words: In vitro enzymatic activity, imatinib-resistant mutant panel. Type of test: biochemical.
The next test addresses DDR1 (Homo sapiens, UniProt Q08345). As to the kind of experiment: Kinase selectivity test against DDR1. It is filed as biochemical. The protocol: On the other hand, to gain certain insights about the kinase selectivity of this array of ureidobenzothiazoles, compounds 2a and 2b were tested against DDR1 (Figure 4). Discoidin domain receptors (DDR1/2) are transmembrane receptor tyrosine kinases (RTKs), activated by fibrillar collagens. DDR1/2 and BCR-ABL share almost 61% sequence similarities in their ATP binding domains. […] This observation points out the merit of these ureidobenzothiazoles over the known BCR-ABL inhibitors in achieving exceptional selectivity towards BCR-ABL.

Another test concerns the target ABL^F317I (Homo sapiens, UniProt P00519, F317I). In words: In vitro enzymatic activity, imatinib-resistant mutant panel. It is filed as biochemical.
For a further test, the target named is ABL^H396P (Homo sapiens, UniProt P00519, H396P). The test is described as above. Type of test: biochemical.
The test system of a further test is MALME-3M. Also on record: method as in earlier work. The following applies: imatinib mesylate NSC 743414, NCI data; cited from earlier work.
For a further test, the system named is HOP-62. Also on record: method as in earlier work. The following applies: imatinib mesylate NSC 743414, NCI data; cited from earlier work.
Another test relates to UACC-62. Also on record: method as in earlier work. To be noted: imatinib mesylate NSC 743414, NCI data; cited from earlier work.
In a further test the test system is U251. Also on record: method as in earlier work. The following applies: imatinib mesylate NSC 743414, NCI data; cited from earlier work.
A further test relates to SF-295. More on the design: method as in earlier work. To be noted: imatinib mesylate NSC 743414, NCI data; cited from earlier work.
Another test concerns DU-145. More on the design: method as in earlier work. To be noted: imatinib mesylate NSC 743414, NCI data; cited from earlier work.
The test system of another test is NCI-H226. More on the design: method as in earlier work. To be noted: imatinib mesylate NSC 743414, NCI data; cited from earlier work.
The subject of a further test is NCI-H460. Also on record: method as in earlier work. The following applies: imatinib mesylate NSC 743414, NCI data; cited from earlier work.
For the next test, the system named is SW-620. More on the design: method as in earlier work. To be noted: imatinib mesylate NSC 743414, NCI data; cited from earlier work.
Another test relates to SK-MEL-5. Also on record: method as in earlier work. The following applies: imatinib mesylate NSC 743414, NCI data; cited from earlier work.
Another test concerns M14. More on the design: method as in earlier work. The following applies: imatinib mesylate NSC 743414, NCI data; cited from earlier work.
A further test relates to HT29. Also on record: method as in earlier work. To be noted: imatinib mesylate NSC 743414, NCI data; cited from earlier work.
The next test relates to HL-60(TB). More on the design: method as in earlier work. The following applies: imatinib mesylate NSC 743414, NCI data; cited from earlier work.
The next test has as its system TK-10. More on the design: method as in earlier work. To be noted: imatinib mesylate NSC 743414, NCI data; cited from earlier work.
The subject of a further test is RPMI-8226. More on the design: method as in earlier work. The following applies: imatinib mesylate NSC 743414, NCI data; cited from earlier work.
The subject of another test is SF-539. Also on record: method as in earlier work. The following applies: imatinib mesylate NSC 743414, NCI data; cited from earlier work.
The next test relates to SK-MEL-28. Also on record: method as in earlier work. The following applies: imatinib mesylate NSC 743414, NCI data; cited from earlier work.
A further test deals with SNB-75. More on the design: method as in earlier work. The following applies: imatinib mesylate NSC 743414, NCI data; cited from earlier work.
The next test concerns CCRF-CEM. More on the design: method as in earlier work. To be noted: imatinib mesylate NSC 743414, NCI data; cited from earlier work.
A further test concerns UO-31. Also on record: method as in earlier work. To be noted: imatinib mesylate NSC 743414, NCI data; cited from earlier work.
Another test relates to 786-0. More on the design: method as in earlier work. To be noted: imatinib mesylate NSC 743414, NCI data; cited from earlier work.
The test system of a further test is MDA-MB-435. More on the design: method as in earlier work. The following applies: imatinib mesylate NSC 743414, NCI data; cited from earlier work.
The next test has as its system ACHN. Also on record: method as in earlier work. The following applies: imatinib mesylate NSC 743414, NCI data; cited from earlier work.
The test system of the next test is HOP-92. More on the design: method as in earlier work. The following applies: imatinib mesylate NSC 743414, NCI data; cited from earlier work.
The subject of a further test is PC-3. More on the design: method as in earlier work. To be noted: imatinib mesylate NSC 743414, NCI data; cited from earlier work.
For the next test, the system named is OVCAR-8. Also on record: method as in earlier work. To be noted: imatinib mesylate NSC 743414, NCI data; cited from earlier work.
In the next test the test system is NCI 60-cell line panel. More on the design: method as in earlier work. The following applies: COLO205, HCC-2998, HCT-116 and HCT-15 colon cancer cells; cited from earlier work.
Another test has as its system EKVX. Also on record: method as in earlier work. The following applies: imatinib mesylate NSC 743414, NCI data; cited from earlier work.
For a further test, the system named is HCC-2998. More on the design: method as in earlier work. The following applies: imatinib mesylate NSC 743414, NCI data; cited from earlier work.
A further test deals with CAKI-1. More on the design: method as in earlier work. To be noted: imatinib mesylate NSC 743414, NCI data; cited from earlier work.
The subject of the next test is A498. Also on record: method as in earlier work. To be noted: imatinib mesylate NSC 743414, NCI data; cited from earlier work.
The test system of a further test is NCI-H23. More on the design: method as in earlier work. The following applies: imatinib mesylate NSC 743414, NCI data; cited from earlier work.
For another test, the system named is RXF 393. More on the design: method as in earlier work. The following applies: imatinib mesylate NSC 743414, NCI data; cited from earlier work.
For another test, the system named is UACC-257. More on the design: method as in earlier work. To be noted: imatinib mesylate NSC 743414, NCI data; cited from earlier work.
A further test deals with OVCAR-3. More on the design: method as in earlier work. To be noted: imatinib mesylate NSC 743414, NCI data; cited from earlier work.
The test system of another test is NCI-H322M. Also on record: method as in earlier work. To be noted: imatinib mesylate NSC 743414, NCI data; cited from earlier work.
Another test has as its system HCT-116. Also on record: method as in earlier work. To be noted: imatinib mesylate NSC 743414, NCI data; cited from earlier work.
A further test concerns LOX IMVI. Also on record: method as in earlier work. To be noted: imatinib mesylate NSC 743414, NCI data; cited from earlier work.
For the next test, the system named is SK-OV-3. Also on record: method as in earlier work. To be noted: imatinib mesylate NSC 743414, NCI data; cited from earlier work.
In another test the test system is MOLT-4. Also on record: method as in earlier work. To be noted: imatinib mesylate NSC 743414, NCI data; cited from earlier work.
The next test concerns MDA-MB-231. More on the design: method as in earlier work. To be noted: imatinib mesylate NSC 743414, NCI data; cited from earlier work.

pIC50: −log10 of the molar value.

DDR1, sequence (Q08345 19-913, species assumed): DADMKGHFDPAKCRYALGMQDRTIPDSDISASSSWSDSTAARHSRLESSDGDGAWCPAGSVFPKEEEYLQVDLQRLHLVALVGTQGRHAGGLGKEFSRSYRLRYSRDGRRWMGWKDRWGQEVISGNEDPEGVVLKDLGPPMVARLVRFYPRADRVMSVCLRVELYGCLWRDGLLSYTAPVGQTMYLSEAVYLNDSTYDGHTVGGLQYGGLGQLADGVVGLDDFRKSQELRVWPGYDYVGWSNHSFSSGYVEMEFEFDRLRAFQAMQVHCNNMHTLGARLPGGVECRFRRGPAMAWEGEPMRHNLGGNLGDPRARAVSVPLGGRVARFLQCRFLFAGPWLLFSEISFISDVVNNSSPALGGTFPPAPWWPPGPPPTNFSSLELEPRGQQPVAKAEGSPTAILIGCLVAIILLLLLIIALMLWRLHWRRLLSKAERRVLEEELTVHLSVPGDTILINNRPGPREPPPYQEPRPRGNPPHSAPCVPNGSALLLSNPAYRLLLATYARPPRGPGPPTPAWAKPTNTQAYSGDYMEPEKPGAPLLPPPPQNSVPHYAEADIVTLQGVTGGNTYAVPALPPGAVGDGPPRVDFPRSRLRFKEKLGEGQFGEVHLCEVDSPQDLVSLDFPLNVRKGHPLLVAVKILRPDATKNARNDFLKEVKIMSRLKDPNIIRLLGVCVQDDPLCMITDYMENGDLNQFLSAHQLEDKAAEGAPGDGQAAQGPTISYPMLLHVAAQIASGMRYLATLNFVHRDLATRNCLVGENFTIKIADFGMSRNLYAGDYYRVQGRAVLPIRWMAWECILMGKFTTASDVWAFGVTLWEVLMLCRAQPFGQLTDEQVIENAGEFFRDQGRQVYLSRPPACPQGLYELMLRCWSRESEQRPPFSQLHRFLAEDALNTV

As to `CCN1CCN(c2ccc(NC(=O)Nc3nc4ccc(-c5ccccc5OC)cc4s3)cc2)CC1` [Compound 2b], the pIC50 was 8.97 at ABL^M351T, 6.70 against DDR1, 8.29 against ABL^F317I and more than 9.00 on ABL^H396P.
Turning to `Cc1ccc(NC(=O)c2ccc(CN3CCN(C)CC3)cc2)cc1Nc1nccc(-c2cccnc2)n1` [Imatinib], the GI50 with MALME-3M was 16.3 µM; in the test on HOP-62, 21.5 µM; in the test with UACC-62 it was 19 µM; in the test on U251, 18 µM; in the test with SF-295, 19.8 µM; in the test with DU-145 it was 18.8 µM. Besides, the GI50 in the test on NCI-H226 is 18.1 µM; with NCI-H460, 16.2 µM; with SW-620 it was 23.4 µM; in the test with SK-MEL-5, 12.1 µM; with M14 it was 19.3 µM; in the test on HT29, 3.97 µM. The concentration for 50% growth inhibition (GI50) in the test with HL-60(TB) is 13.5 µM; in the test with TK-10, 26.9 µM; in the test on RPMI-8226, 6.05 µM; in the test with SF-539 it was 10.6 µM; with SK-MEL-28, 14.6 µM; in the test on SNB-75 it was 20.3 µM. Besides, the GI50 in the test with CCRF-CEM was 17 µM; in the test on UO-31, 22.3 µM; in the test with 786-0 it was 16 µM; in the test with MDA-MB-435, 17.9 µM; in the test with ACHN it was 25.2 µM; with HOP-92, 13.3 µM. Also, the GI50 was 21.4 µM with PC-3; 27.7 µM in the test on OVCAR-8; 12.6 to 21.2 µM in the test on NCI 60-cell line panel; 26.2 µM in the test on EKVX; 21.2 µM in the test on HCC-2998; 34 µM with CAKI-1. The GI50 is 22 µM in the test on A498; 15 µM with NCI-H23; 15.1 µM in the test with RXF 393; 21.1 µM with UACC-257; 34.2 µM with OVCAR-3; 22.8 µM in the test on NCI-H322M. In addition, the GI50 is 12.6 µM in the test on HCT-116; 18.1 µM with LOX IMVI; 28.9 µM with SK-OV-3; 5.13 µM with MOLT-4; 18.7 µM in the test on MDA-MB-231.

The values are drawn from paper PMC10026764, “Overcoming the imatinib-resistant BCR-ABL mutants with new ureidobenzothiazole chemotypes endowed with potent and broad-spectrum anticancer activity” (Journal of Enzyme Inhibition and Medicinal Chemistry, 2023).
